Tested on: A549 lung cancer subcutaneous xenograft model
Assay: Tumor drug accumulation test, Pt in tumor by ICP-MS
Type: in vivo, Bal b/c nude mice
Details: tail vein injection, CPT 5 mg/kg and Pt 1.8 mg/kg
Description: The tumor model used in this example was A549 lung cancer subcutaneous xenograft model. Female Bal b/c nude mice at the age of 8 weeks were administrated with the drug formulation via tail vein injection at a dose of 200 microliters with CPT at 5 mg/kg and Pt at 1.8 mg/kg. Equivalent amounts of cisplatin and the self-assembled dual-drug nano-formulation cisplatin@PEG-PGlu(ss-CPT) served as controls. At different time points after the intravenous injection, the mice were dissected, and the tumor tissues were collected and fully dissolved in concentrated nitric acid. The Pt contents in the tumor tissues were measured using ICP-MS.

Q: How did the “drug (Pt) concentration / enrichment in the tumor” value turn out when N.N.[Cl][Pt][Cl] [cisplatin] was run?
A: relatively low

From US20250009895A1, “DRUG LOADING MONOMOLECULAR NANO POLYMER, PRODRUG, MICELLE, DRUG DELIVERY SYSTEM, PREPARATION METHOD, AND USE” (priority 2021, published 2025)
